From BigSolDB 2.1

`c1ccc2c(c1)Cc1ccccc1-2` showed a solubility (mole fraction) (in acetone, 283 K) of 0.0445, a solubility (mole fraction) (in acetone, 288 K) of 0.049 and a solubility (mole fraction) (in acetone, 293 K) of 0.0558. The solubility (mole fraction) (in acetone, 298 K) was 0.0687, the solubility (mole fraction) (in acetone, 303.1 K) was 0.0793 and the solubility (mole fraction) (in acetone, 308.2 K) was 0.0907. It also gave a solubility (mole fraction) (in acetone, 313 K) of 0.104, a solubility (mole fraction) (in acetone, 318 K) of 0.12 and a solubility (mole fraction) (in acetone, 323 K) of 0.14. The solubility (mole fraction) (in benzene, 283 K) was 0.0883, the solubility (mole fraction) (in benzene, 288 K) was 0.0982 and the solubility (mole fraction) (in benzene, 293 K) was 0.109. For the same molecule, the solubility (mole fraction) (in benzene, 298 K) was 0.126, the solubility (mole fraction) (in benzene, 303.2 K) was 0.143 and the solubility (mole fraction) (in benzene, 308 K) was 0.158. For the same molecule, the solubility (mole fraction) (in benzene, 313 K) was 0.183, the solubility (mole fraction) (in benzene, 318 K) was 0.209 and the solubility (mole fraction) (in benzene, 323 K) was 0.235. For the same molecule, the solubility (mole fraction) (in chloroform, 283 K) was 0.0893, the solubility (mole fraction) (in chloroform, 288 K) was 0.102 and the solubility (mole fraction) (in chloroform, 293 K) was 0.114. The solubility (mole fraction) (in chloroform, 298 K) was 0.132, the solubility (mole fraction) (in chloroform, 303.1 K) was 0.153 and the solubility (mole fraction) (in chloroform, 308.2 K) was 0.173. It also gave a solubility (mole fraction) (in chloroform, 313 K) of 0.195, a solubility (mole fraction) (in chloroform, 318 K) of 0.22 and a solubility (mole fraction) (in chloroform, 323 K) of 0.25. For the same molecule, the solubility (mole fraction) (in isobutanol, 283 K) was 0.00425, the solubility (mole fraction) (in isobutanol, 288 K) was 0.00544 and the solubility (mole fraction) (in isobutanol, 293 K) was 0.00691. It also gave a solubility (mole fraction) (in isobutanol, 298.4 K) of 0.00902, a solubility (mole fraction) (in isobutanol, 303.2 K) of 0.0121 and a solubility (mole fraction) (in isobutanol, 308 K) of 0.0156. For the same molecule, the solubility (mole fraction) (in isobutanol, 313 K) was 0.0192, the solubility (mole fraction) (in isobutanol, 318 K) was 0.023 and the solubility (mole fraction) (in isobutanol, 323 K) was 0.0267. It also gave a solubility (mole fraction) (in n-propanol, 283 K) of 0.00817, a solubility (mole fraction) (in n-propanol, 288 K) of 0.00903 and a solubility (mole fraction) (in n-propanol, 293 K) of 0.0115. It also gave a solubility (mole fraction) (in n-propanol, 298.4 K) of 0.0134, a solubility (mole fraction) (in n-propanol, 303.2 K) of 0.0163 and a solubility (mole fraction) (in n-propanol, 308 K) of 0.0188. It also gave a solubility (mole fraction) (in n-propanol, 313 K) of 0.0215, a solubility (mole fraction) (in n-propanol, 318 K) of 0.0248 and a solubility (mole fraction) (in n-propanol, 323 K) of 0.0289. For the same molecule, the solubility (mole fraction) (in toluene, 283 K) was 0.063, the solubility (mole fraction) (in toluene, 288 K) was 0.0809 and the solubility (mole fraction) (in toluene, 293 K) was 0.0967. For the same molecule, the solubility (mole fraction) (in toluene, 298 K) was 0.124, the solubility (mole fraction) (in toluene, 303 K) was 0.152 and the solubility (mole fraction) (in toluene, 308 K) was 0.195. It also gave a solubility (mole fraction) (in toluene, 313 K) of 0.25, a solubility (mole fraction) (in toluene, 318 K) of 0.3 and a solubility (mole fraction) (in toluene, 323 K) of 0.37.
